Key:
[1] = tested on: Human neuroblastoma SH-SY5Y cell line; test: MTT assay of cell activity (mitochondria dehydrogenase activity); format: cell-based; conditions: for degree of suppression of the cell activity by concentration (MTT): SH-SY5Y cells, 1, 2 or 4 μM, 24 hrs, FIG. 4A
Experimental: To compare the physiological activity of the genetic recombinant amyloid-β peptide produced according to the present invention with that of the amyloid-β peptide produced by a chemical synthetic method, their mitochondrial activities in eykaryotic cells were examined as follows:
First, 0.45 mg of the amyloid-β peptide prepared in Example 3 was dissolved in 20 μl of dimethyl sulfoxide, and 980 μl of DMEM was added thereto, to prepare the amyloid-β peptide solution at a concentration of 100 μM, which was stored at 4[…] for 24 hrs and subjected to centrifugation to separate the supernatant from the precipitate. The supernatant was distributed to an eppendorf tube at a volume of 50 μl and stored at −80[…].
(§1) Human neuroblastoma SH-SY5Y cell line (ATCC CRL-2266) was suspended in DMEM containing 10% FBS, distributed to each well of a 96-well plate at a concentration of 7×10^3 cells/well, and then, cultured at 37 °C for 24 hrs. The genetic recombinant amyloid-β peptide solution prepared above was added to each well at a concentration of 1, 2 or 4 μM, and the well plate was incubated at 37 °C for 24 hrs. The cell activity was measured by means of MTT (3-(4,5-dimethylthiazol-2-yl)-2,5-diphenyltetrazolium bromide) assay which is capable of measuring the in vivo mitochondria dehydrogenase activity. MTT was added to each well at a concentration of 0.8 mg/ml, and the reactants in the well were allowed to react at 37 °C for 5 hrs to induce in vivo dehydrogenase reaction of mitochondria. Formazan crystals generated from such reaction were dissolved in dimethyl sulfoxide and its adsorbance was measured at 550 nm.
Also shown in FIG. [[4a]]4A are the results obtained using the recombinant ubiquitin (H6Ub: ●) control, the ubiquitin-amyloid-β peptide fusion protein (H6Ub-Aβ42: ▪) and the chemically synthesized amyloid-β peptide (Aβ42: □).

[2] = tested on: Human neuroblastoma SH-SY5Y cell line; test: level of apoptosis by trypan blue staining; format: cell-based; conditions: 5 μM, 36 hrs, FIG. 4C
Experimental: as §1
After the cells were treated with 5 μM of the amyloid-β peptide for 36 hrs, black cells stained with trypan blue were examined to determine the level of apoptosis induced.

[3] = listed as recombinant amyloid-β peptide

Substance: rAβ42: genetic recombinant amyloid-β peptide (amyloid-beta42, SEQ ID NO: 19) cleaved from a ubiquitin fusion protein expressed in E. coli
- changes in the cell activity according to the treatment time (MTT) ([1]; SH-SY5Y cells, 5 μM, 12, 24 and 48 hrs, FIG. 4B): as the treatment time becomes longer, the cell activity becomes further reduced
- degree of suppression of the cell activity by concentration (MTT) [1]: can suppress the cell activity just like the chemically synthesized amyloid-β peptide
- degree of suppression of the cell activity by concentration (MTT) [1, 3]: can suppress the cell activity
- level of apoptosis induced (trypan blue staining) [2]: showed an apoptotic activity, which was significantly higher than the recombinant ubiquitin (H6Ub) or ubiquitin-amyloid fusion protein (H6Ub-Aβ42), the activity being equal to, or slightly higher than, the chemically synthesized amyloid-β peptide (Aβ42)
- level of apoptosis induced (trypan blue staining) [2, 3]: induce apoptosis to an extent which is equal to that achievable with chemically synthesized amyloid-β peptide

Reference: patent US20060281901A1, “Method for the production of amyloid-beta peptide using ubiquitin” (priority 2005, published 2006)
